Laboratory results: US20160058722A1, “METHOD FOR IMPROVING THE OXYGEN-RELEASING ABILITY OF HEMOGLOBIN TO ORGANS AND PERIPHERAL TISSUES IN HUMAN BODIES” (NATIONAL SUN YAT-SEN UNIVERSITY, priority 2014, published 2016)

Biological target: hemoglobin (Homo sapiens, UniProt P68871+P69905)
Test: resonance Raman spectroscopy of oxygenated hemoglobin, percentage of "R" state
Assay type: biochemical
Conditions: varying mole ratio to hemoglobin tetramer, 532 nm excitation, oxygen atmosphere
Description: In order to evaluate the effect of ferulic acid on stabilizing the oxygenated hemoglobin in the low oxygen affinity “T” state, compounds including 2,3-BPG (group A0) and ferulic acid (group A1) are mixed with hemoglobin as a function of their mole ratio to hemoglobin, followed by the resonance Raman spectroscopy measurements at 532 nm excitation wavelength under the oxygen atmosphere. The percentages of the high oxygen affinity “R” state for hemoglobin treated with 2,3-BPG (shown in FIG. 2a, as reference) and ferulic acid (shown in FIG. 2b) are analyzed from the resonance Raman spectroscopy measurements. In more specific, the percentage of high oxygen affinity “R” state for each treated hemoglobin was obtained by fitting a simulated spectrum comprised of adjustable weighing factors of the T and R states of pure hemoglobin to the obtained resonance Raman spectrum of treated hemoglobin.

Sequence of hemoglobin (P69905 2-142): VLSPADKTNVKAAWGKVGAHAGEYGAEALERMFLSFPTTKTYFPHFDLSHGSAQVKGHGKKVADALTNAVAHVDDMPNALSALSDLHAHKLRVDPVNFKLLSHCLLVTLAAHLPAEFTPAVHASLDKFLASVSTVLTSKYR
Sequence of hemoglobin (P68871 2-147): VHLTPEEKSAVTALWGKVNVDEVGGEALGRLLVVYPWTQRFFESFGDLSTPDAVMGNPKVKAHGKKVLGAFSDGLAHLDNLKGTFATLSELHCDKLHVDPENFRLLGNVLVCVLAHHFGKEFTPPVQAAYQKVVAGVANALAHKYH

Row | SMILES | "R" state suppression efficiency
1 | O=C(O)C(COP(=O)(O)O)OP(=O)(O)O (centres unmarked) [2,3-BPG, 2,3-bisphosphoglycerate] | about 20%
2 | COc1cc(/C=C/C(=O)O)ccc1O [ferulic acid] | higher than 50%
